Laboratory results from ChEMBL document CHEMBL1201862, “PubChem BioAssay data set” (2004).
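In this assay, cells in 96-well plates receive the compound at five concentrations for 48 hours. Endpoints are linearly interpolated between the surrounding concentrations. GI50: concentration for 50% inhibition of growth.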 Calls of active or inactive are those of the source. Rule as the data show it: active = GI50 up to about 1.1 µM and inactive = higher.

Key:
Test in all cases: NCI-60 cell line screen, 48 h
DU-145 = tested on: DU-145
LOX IMVI = tested on: LOX IMVI
SK-MEL-28 = tested on: SK-MEL-28
SR = tested on: SR
SK-MEL-5 = tested on: SK-MEL-5
A549 = tested on: A549
786-0 = tested on: 786-0
U-251 = tested on: U-251
ACHN = tested on: ACHN
SNB-19 = tested on: SNB-19
UO-31 = tested on: UO-31
OVCAR-4 = tested on: OVCAR-4
T47D = tested on: T47D
Malme-3M = tested on: Malme-3M
MDA-MB-435 = tested on: MDA-MB-435
CCRF-CEM = tested on: CCRF-CEM
HCC 2998 = tested on: HCC 2998
OVCAR-8 = tested on: OVCAR-8
HT-29 = tested on: HT-29
SK-OV-3 = tested on: SK-OV-3
SN12C = tested on: SN12C
MDA-N = tested on: MDA-N
RPMI-8226 = tested on: RPMI-8226
TK-10 = tested on: TK-10
HOP-92 = tested on: HOP-92
SK-MEL-2 = tested on: SK-MEL-2
SNB-75 = tested on: SNB-75
IGROV-1 = tested on: IGROV-1
KM12 = tested on: KM12
HCT-15 = tested on: HCT-15
A498 = tested on: A498
MOLT-4 = tested on: MOLT-4
UACC-257 = tested on: UACC-257
MDA-MB-231 = tested on: MDA-MB-231
HCT-116 = tested on: HCT-116
NCI/ADR-RES = tested on: NCI/ADR-RES
Hs-578T = tested on: Hs-578T
NCI-H522 = tested on: NCI-H522
NCI-H226 = tested on: NCI-H226
M14 = tested on: M14
COLO 205 = tested on: COLO 205
UACC-62 = tested on: UACC-62
EKVX = tested on: EKVX
OVCAR-5 = tested on: OVCAR-5
SF-539 = tested on: SF-539
PC-3 = tested on: PC-3
MCF7 = tested on: MCF7
K562 = tested on: K562
HOP-62 = tested on: HOP-62
SF-295 = tested on: SF-295
NCI-H23 = tested on: NCI-H23
OVCAR-3 = tested on: OVCAR-3
BT-549 = tested on: BT-549
SW-620 = tested on: SW-620
CAKI-1 = tested on: CAKI-1
HL-60 = tested on: HL-60
NCI-H460 = tested on: NCI-H460
RXF 393 = tested on: RXF 393
SF-268 = tested on: SF-268

SMILES: COc1ccc(CN(Cc2ccc(OC)cc2)C(=O)CC2(O)C=CCC2)cc1 (stereo not given)
- GI50 (DU-145): > 100 µM (inactive)
- GI50 (LOX IMVI): > 100 µM (inactive)
- GI50 (SK-MEL-28): > 100 µM (inactive)
- GI50 (SR): 36.1 µM (inactive)
- GI50 (SK-MEL-5): 32.9 µM (inactive)
- GI50 (A549): 46.2 µM (inactive)
- GI50 (786-0): > 100 µM (inactive)
- GI50 (U-251): 90.8 µM (inactive)
- GI50 (ACHN): > 100 µM (inactive)
- GI50 (SNB-19): 71.9 µM (inactive)
- GI50 (UO-31): 44.9 µM (inactive)
- GI50 (OVCAR-4): 80 µM (inactive)
- GI50 (T47D): 39.4 µM (inactive)
- GI50 (Malme-3M): > 100 µM (inactive)
- GI50 (MDA-MB-435): 71.4 µM (inactive)
- GI50 (CCRF-CEM): 47.6 µM (inactive)
- GI50 (HCC 2998): 69.2 µM (inactive)
- GI50 (OVCAR-8): 37.5 µM (inactive)
- GI50 (HT-29): 66.7 µM (inactive)
- GI50 (SK-OV-3): > 100 µM (inactive)
- GI50 (SN12C): > 100 µM (inactive)
- GI50 (MDA-N): 72.9 µM (inactive)
- GI50 (RPMI-8226): 31.6 µM (inactive)
- GI50 (TK-10): > 100 µM (inactive)
- GI50 (HOP-92): > 100 µM (inactive)
- GI50 (SK-MEL-2): 56.6 µM (inactive)
- GI50 (SNB-75): 81.8 µM (inactive)
- GI50 (IGROV-1): > 100 µM (inactive)
- GI50 (KM12): 45.9 µM (inactive)
- GI50 (HCT-15): 78.7 µM
- GI50 (A498): > 100 µM (inactive)
- GI50 (MOLT-4): 31.6 µM (inactive)
- GI50 (UACC-257): 43.4 µM (inactive)
- GI50 (MDA-MB-231): > 100 µM (inactive)
- GI50 (HCT-116): 55.3 µM (inactive)
- GI50 (NCI/ADR-RES): 43.1 µM (inactive)
- GI50 (Hs-578T): 48.4 µM (inactive)
- GI50 (NCI-H522): 32.7 µM (inactive)
- GI50 (NCI-H226): > 100 µM (inactive)
- GI50 (M14): > 100 µM (inactive)
- GI50 (COLO 205): 40 µM (inactive)
- GI50 (UACC-62): 57.7 µM (inactive)
- GI50 (EKVX): 46.1 µM (inactive)
- GI50 (OVCAR-5): > 100 µM (inactive)
- GI50 (SF-539): > 100 µM (inactive)
- GI50 (PC-3): 28 µM (inactive)
- GI50 (MCF7): 43.9 µM (inactive)
- GI50 (K562): 34 µM (inactive)
- GI50 (HOP-62): > 100 µM (inactive)
- GI50 (SF-295): 56.9 µM (inactive)
- GI50 (NCI-H23): > 100 µM (inactive)
- GI50 (OVCAR-3): 98.2 µM (inactive)
- GI50 (BT-549): > 100 µM (inactive)
- GI50 (SW-620): > 100 µM (inactive)
- GI50 (CAKI-1): 46.7 µM (inactive)
- GI50 (HL-60): 34.8 µM (inactive)
- GI50 (NCI-H460): 67.5 µM (inactive)

SMILES: C=CC[C@]12C=C(OC)[C@@H](O)[C@](OC)(C(c3cc(OC)c4c(c3)OCO4)[C@H]1C)[C@H]2OC(C)=O (stereo not given in full)
- GI50 (DU-145): > 100 µM (inactive)
- GI50 (SK-MEL-28): > 100 µM (inactive)
- GI50 (RXF 393): > 100 µM (inactive)
- GI50 (SR): > 100 µM (inactive)
- GI50 (SK-MEL-5): > 100 µM (inactive)
- GI50 (A549): > 100 µM (inactive)
- GI50 (786-0): > 100 µM (inactive)
- GI50 (U-251): > 100 µM (inactive)
- GI50 (ACHN): > 100 µM (inactive)
- GI50 (SNB-19): > 100 µM (inactive)
- GI50 (UO-31): 89.3 µM (inactive)
- GI50 (OVCAR-4): 69.2 µM (inactive)
- GI50 (T47D): > 100 µM (inactive)
- GI50 (SF-268): 8.34 µM (inactive)
- GI50 (Malme-3M): > 100 µM (inactive)
- GI50 (MDA-MB-435): 94.6 µM (inactive)
- GI50 (CCRF-CEM): > 100 µM (inactive)
- GI50 (HCC 2998): > 100 µM (inactive)
- GI50 (OVCAR-8): > 100 µM (inactive)
- GI50 (HT-29): > 100 µM (inactive)
- GI50 (SK-OV-3): 61.1 µM (inactive)
- GI50 (SN12C): > 100 µM (inactive)
- GI50 (MDA-N): > 100 µM (inactive)
- GI50 (RPMI-8226): > 100 µM (inactive)
- GI50 (TK-10): > 100 µM (inactive)
- GI50 (HOP-92): 83.6 µM (inactive)
- GI50 (SK-MEL-2): > 100 µM (inactive)
- GI50 (SNB-75): 40.7 µM (inactive)
- GI50 (IGROV-1): > 100 µM (inactive)
- GI50 (KM12): > 100 µM (inactive)
- GI50 (HCT-15): > 100 µM
- GI50 (A498): > 100 µM (inactive)
- GI50 (MOLT-4): 67.5 µM (inactive)
- GI50 (UACC-257): > 100 µM (inactive)
- GI50 (MDA-MB-231): > 100 µM (inactive)
- GI50 (HCT-116): > 100 µM (inactive)
- GI50 (NCI/ADR-RES): > 100 µM (inactive)
- GI50 (Hs-578T): 22.6 µM (inactive)
- GI50 (NCI-H522): > 100 µM (inactive)
- GI50 (NCI-H226): > 100 µM (inactive)
- GI50 (M14): > 100 µM (inactive)
- GI50 (COLO 205): > 100 µM (inactive)
- GI50 (UACC-62): > 100 µM (inactive)
- GI50 (EKVX): > 100 µM (inactive)
- GI50 (OVCAR-5): > 100 µM (inactive)
- GI50 (SF-539): > 100 µM (inactive)
- GI50 (PC-3): 62.5 µM (inactive)
- GI50 (MCF7): > 100 µM (inactive)
- GI50 (K562): > 100 µM (inactive)
- GI50 (HOP-62): > 100 µM (inactive)
- GI50 (SF-295): > 100 µM (inactive)
- GI50 (NCI-H23): > 100 µM (inactive)
- GI50 (OVCAR-3): > 100 µM (inactive)
- GI50 (BT-549): > 100 µM (inactive)
- GI50 (SW-620): > 100 µM (inactive)
- GI50 (CAKI-1): > 100 µM (inactive)
- GI50 (HL-60): 91 µM (inactive)
- GI50 (NCI-H460): > 100 µM (inactive)
